# From patent US20220195487A1, “Method for Measuring Inhibition of Bacteria by Antibacterial Drug, and Bacterial Counting Device and Method Thereof” (BEIJING XINJI JINNUO MEDICAL EQUIPMENT CO.,LTD., priority 2019, published 2022)
# Legend:
# Type in all cases: cell-based
# [1] = test system: Staphylococcus aureus (ATCC29213); assay: 2 h susceptibility by resistance bacterial counter; settings: Example 3, resistance counting, 2 h at 37° C., 60% of the positive count value as threshold
# Protocol: 2.2.1 Preparation of bacterial strains: In accordance with the requirements of the CLSI standards, pick each fresh strains within 24 h with a turbidity of 0.5 McFarland units in the column of strain name in Table 5;
# 2.2.2 Inoculation: Take 100 μL of each bacterial suspension with a turbidity of 0.5 McFarland units and dispense to a 48-well plate with pre-configured gradient antibiotics, 500 μL dispensed in each well;
# 2.2.3 Incubation and detection: Incubate for 2 h at 37° C., and measure with a resistance bacterial counter. Adjust the instrument to its best sensitivity and then count bacteria. Record the 24 h routine susceptibility results for comparative analysis.
# [2] = test system: Staphylococcus aureus (ATCC29213); assay: 24 h routine (conventional) drug susceptibility testing by visual observation
# [3] = test system: Staphylococcus aureus (ATCC29213); assay: rapid drug susceptibility testing of living cells (live bacteria counting, 2 h); settings: for Living cell counts: 2 h
# Protocol: 1.2.1 Preparation of bacterial strains: in accordance with the requirements of the CLSI standards, pick each fresh strains within 24 h with a turbidity of 0.5 McFarland units in the column of strain name in Table 7.
# 1.2.2 Inoculation: take 100 μL of each bacterial suspension with a turbidity of 0.5 McFarland units and dispense to a 48-well plate with pre-configured gradient antibiotics, 500 μL dispensed in each well.
# 1.2.3 Incubation and detection: incubate for 2 h at 37° C., and perform live bacteria counting. Record the 24 h routine susceptibility results for comparative analysis.
compound,measurement,setting,value
CC[C@H]1OC(=O)[C@H](C)[C@@H](O[C@H]2C[C@@](C)(OC)[C@@H](O)[C@H](C)O2)[C@H](C)[C@@H](O[C@@H]2O[C@H](C)C[C@H](N(C)C)[C@H]2O)[C@](C)(O)C[C@@H](C)C(=O)[C@H](C)[C@@H](O)[C@]1(C)O [Erythromycin],2 hMIC,[1],0.5
same,24 hMIC,"[2]; Example 3, 24 h routine susceptibility",0.25
same,"MIC, conventional drug susceptibility testing","[2]; Example 4, 24 h routine susceptibility",0.25 µg/mL
same,Living cell counts,[3]; 0.03 μg/mL,5107 cells/μL
same,Living cell counts,[3]; 0.06 μg/mL,5078 cells/μL
same,Living cell counts,[3]; 0.12 μg/mL,3980 cells/μL
same,Living cell counts,[3]; 0.25 μg/mL,889 cells/μL
same,Living cell counts,[3]; 0.5 μg/mL,609 cells/μL
same,Living cell counts,[3]; 1 μg/mL,598 cells/μL
same,Living cell counts,[3]; 2 μg/mL,498 cells/μL
same,Living cell counts,[3]; 4 μg/mL,460 cells/μL
same,Living cell counts,[3]; 8 μg/mL,446 cells/μL
same,Living cell counts,[3]; 16 μg/mL,457 cells/μL
same,"MIC, rapid drug susceptibility testing of living cells","[3]; Example 4, live bacteria counting, 2 h at 37° C.",0.25 µg/mL
